Among the data in patent US12116358B2, “Substituted indoles and methods of use thereof” (EPIZYME, INC., priority 2018, dated 2024) are IC50 values, retold here.

A value given as a limit tells only on which side of the number the result lay.

For this assay, the target named is T1, SETD2(1434-1711) (Homo sapiens, UniProt Q9BYW2).
T1 construct: SETD2 (1434-1711) Assay; catalogue N/A
T1 sequence (Q9BYW2 1434-1711): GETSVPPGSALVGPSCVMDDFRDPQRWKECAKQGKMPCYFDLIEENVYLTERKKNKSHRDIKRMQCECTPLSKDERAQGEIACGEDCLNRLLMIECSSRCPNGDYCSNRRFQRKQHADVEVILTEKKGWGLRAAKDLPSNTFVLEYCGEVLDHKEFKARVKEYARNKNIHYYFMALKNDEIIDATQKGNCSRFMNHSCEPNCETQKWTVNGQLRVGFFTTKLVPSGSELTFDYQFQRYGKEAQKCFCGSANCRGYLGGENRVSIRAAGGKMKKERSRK
Kind of assay: SETD2 (1434-1711) assay. Type of assay: biochemical. As to conditions: read-out: SETD2 (1434-1711).
In the case of `Cc1cccc2cc(C(=O)N3CCn4cncc4C3)[nH]c12` [compound 810], the IC50 was above 200 µM. Regarding `Cc1cccc2cc(C(=O)NC(C)c3ccccc3)[nH]c12` (stereo not drawn) [compound 749], the IC50 was above 200 µM. As for `COC(=O)CC(NC(=O)c1cc2cccc(C)c2[nH]1)c1cccc(OC)c1` (stereo not drawn) [compound 659], the IC50 stood at 27.4 µM. For `Cc1cccc2cc(C(=O)NC(c3ccccn3)C3CC3)[nH]c12` (stereo not drawn) [compound 660], the IC50 amounted to 27.9 µM. Consider `Cc1cnc(CNC(=O)c2cc3cccc(C)c3[nH]2)cn1` [compound 723], for which the IC50 was determined as 116 µM. Consider `COC(=O)CC(NC(=O)c1cc2cccc(C)c2[nH]1)c1ccco1` (stereo not drawn) [compound 648], for which the IC50 is 22.3 µM.

`Cc1cccc2cc(C(=O)NCc3ccc(S(=O)(=O)N4CCCCC4)cc3)[nH]c12` [compound 758]: the IC50 is above 200 µM. On to `NC1CCC(NC(=O)c2cc3cccc(Br)c3[nH]2)CC1` (stereo not drawn) [compound 706], for which the IC50 was found to be 71.9 µM. Next, `Cc1ccc(F)c2cc(C(=O)N[C@@H]3CCC[C@@H](N4CCCNC(=O)C4)C3)[nH]c12` [compound 822]: 8.3 µM; `Cc1cccc2cc(C(=O)NC(C)c3ccc(-n4cccn4)cc3)[nH]c12` (stereo not drawn) [compound 652]: 24.8 µM; `Cc1cccc2cc(C(=O)NCc3nc4ccccc4o3)[nH]c12` [compound 779]: above 200 µM. `Cc1cccc2cc(C(=O)Nc3ccccc3C3CCC(=O)N3)[nH]c12` (stereo not drawn) [compound 679]: the IC50 worked out at 43.1 µM. Turning to `Cc1c(C(=O)N[C@H]2CC[C@H](NC(=O)CCN)CC2)[nH]c2c(C)cccc12` [compound 655], the IC50 worked out at 25.1 µM.

On to `Cc1cccc2cc(C(=O)N3CCn4cnnc4C3)[nH]c12` [compound 811], for which the IC50 is above 200 µM.

With `Cc1cccc2cc(C(=O)NC3CCCN(S(=O)(=O)CCCN)C3)[nH]c12` (stereo not drawn) [compound 646], the IC50 amounted to 20.3 µM. Next, `COC(=O)CC(NC(=O)c1cc2cccc(C)c2[nH]1)c1ccc(OC)cc1` (stereo not drawn) [compound 777]: above 200 µM; `CNC(=O)CC(NC(=O)c1cc2cccc(C)c2[nH]1)c1cccnc1` (stereo not drawn) [compound 809]: above 200 µM; `Cc1cccc2cc(C(=O)NCCc3ccccc3-c3ccccc3)[nH]c12` [compound 818]: above 200 µM. The result for `Cc1cccc2cc(C(=O)NCC(O)C(F)F)[nH]c12` (stereo not drawn) [compound 784] reads above 200 µM; that for `CCOC(=O)CC(NC(=O)c1cc2cccc(C)c2[nH]1)c1ccncc1` (stereo not drawn) [compound 700], 68.9 µM. On to `Cc1cccc2cc(C(=O)NCc3cccc(CN4CCCC4)c3)[nH]c12` [compound 674], for which the IC50 stood at 37 µM. Take `Cc1cccc2cc(C(=O)Nc3cn4ccccc4n3)[nH]c12` [compound 796]: the IC50 is above 200 µM. With `Cc1cccc2cc(C(=O)N3CCN(CC(N)=O)CC3)[nH]c12` [compound 781], the IC50 is above 200 µM. In the case of `Cc1cccc2cc(C(=O)NCC(O)C(F)(F)F)[nH]c12` (stereo not drawn) [compound 678], the IC50 worked out at 39.7 µM. In the case of `COC(=O)CC(NC(=O)c1cc2cccc(C)c2[nH]1)c1ccccc1` (stereo not drawn) [compound 775], the IC50 was above 200 µM. The result for `Cc1cccc2cc(C(=O)N3CCc4ccccc4C3)[nH]c12` [compound 684] reads above 50 µM; that for `Cc1cccc2cc(C(=O)NC3CCN(Cc4ccccc4)CC3)[nH]c12` [compound 752], above 200 µM. Take `Cc1cccc2cc(C(=O)Nc3ccncc3)[nH]c12` [compound 632]: the IC50 is 15.6 µM.

With `Cc1cccc2cc(C(=O)N[C@H]3C[C@@H](CO)C3)[nH]c12` [compound 759], the IC50 is above 200 µM.

With `Cc1ccc(C)c2[nH]c(C(=O)N[C@H]3CC[C@H](N)CC3)cc12` [compound 730], the IC50 was above 130 µM. The result for `Cc1cccc2cc(C(=O)Nc3cccc(CN4CCOCC4)n3)[nH]c12` [compound 633] reads 16.2 µM; that for `Cc1cccc2cc(C(=O)N3CCN(C(N)=O)CC3)[nH]c12` [compound 787], above 200 µM; that for `CCOC(=O)N1CCN([C@@H]2CCC[C@@H](NC(=O)c3cc4c(F)ccc(C)c4[nH]3)C2)CC1` [compound 825], 1.2 µM.

Turning to `Cc1cccc2cc(C(=O)NC3Cc4ccccc4NC3=O)[nH]c12` (stereo not drawn) [compound 699], the IC50 was 66.7 µM. Regarding `Cc1cccc2cc(C(=O)NC(c3cccc(F)c3)C(F)(F)F)[nH]c12` (stereo not drawn) [compound 642], the IC50 turned out to be 18.6 µM. On to `Cc1ccc(F)c2cc(C(=O)N[C@@H]3CCC[C@@H](N4CCN(C(=O)N5CCOCC5)CC4)C3)[nH]c12` [compound 829], for which the IC50 came to 1.5 µM. `Cc1cccc2cc(C(=O)N3CCCC(N)C3)[nH]c12` (stereo not drawn) [compound 794]: the IC50 was above 200 µM. As for `Cc1oncc1CNC(=O)c1cc2cccc(C)c2[nH]1` [compound 702], the IC50 amounted to 69.6 µM.

For `Cc1cccnc1C(NC(=O)c1cc2cccc(C)c2[nH]1)C1CCNC1` (stereo not drawn) [compound 722], the IC50 came to 116 µM. Take `Cc1ccc(F)c2cc(C(=O)NC3CCCC(N4CCn5c(n[nH]c5=O)C4)C3)[nH]c12` (stereo not drawn) [compound 1106]: the IC50 was 3 µM. As for `Cc1cccc2cc(C(=O)NC(C)c3ccccc3C(F)(F)F)[nH]c12` (stereo not drawn) [compound 788], the IC50 is above 200 µM. On to `COC(=O)CC(NC(=O)c1cc2cccc(C)c2[nH]1)c1cccc(F)c1` (stereo not drawn) [compound 707], for which the IC50 came to 72 µM. Next, `CCC(NC(=O)c1cc2cccc(C)c2[nH]1)c1nc(C)no1` (stereo not drawn) [compound 668]: 34.5 µM. Regarding `Cc1cccc2cc(C(=O)NC3CCC(=O)Nc4ccccc43)[nH]c12` (stereo not drawn) [compound 704], the IC50 came out at 70.9 µM. `Cc1cccc2cc(C(=O)N[C@@H](CO)Cc3ccccc3)[nH]c12` [compound 692]: the IC50 was determined as 56.9 µM. With `Cc1cc(C)c2[nH]c(C(=O)N[C@H]3CC[C@H](N)CC3)cc2c1` [compound 756], the IC50 was above 200 µM.

For `Cc1cccc2cc(C(=O)N[C@H]3CC[C@H](NS(=O)(=O)CCN)CC3)[nH]c12` [compound 661], the IC50 amounted to 28.7 µM.

On to `COC(=O)CC(NC(=O)c1cc2cccc(C)c2[nH]1)c1ccc(C)cc1` (stereo not drawn) [compound 783], for which the IC50 was above 200 µM. Take `Cc1cccc2cc(C(=O)NC3CCN(S(=O)(=O)CCCN)CC3)[nH]c12` [compound 663]: the IC50 turned out to be 31.5 µM. `Cc1cccc2cc(C(=O)NC(C)CNC(=O)OC(C)(C)C)[nH]c12` (stereo not drawn) [compound 766]: the IC50 was above 200 µM. Turning to `COC(=O)C[C@@H](NC(=O)c1cc2cccc(C)c2[nH]1)c1cccc(Cl)c1` [compound 634], the IC50 was 16.3 µM. Take `COC(=O)CC(NC(=O)c1cc2cccc(C)c2[nH]1)c1ccsc1` (stereo not drawn) [compound 649]: the IC50 was 22.3 µM. With `CNC(=O)CC(NC(=O)c1cc2cccc(C)c2[nH]1)c1ncccc1C` (stereo not drawn) [compound 682], the IC50 is 45.4 µM. For `Cc1cccc2cc(C(=O)NC(CCN(C)C)c3cccnc3)[nH]c12` (stereo not drawn) [compound 725], the IC50 is 123 µM.

With `Cc1ccc(F)c2cc(C(=O)N[C@@H]3CCC[C@@H](N4CCn5ccnc5C4)C3)[nH]c12` [compound 853], the IC50 amounted to 9.7 µM. With `COC(=O)CC(NC(=O)c1cc2cccc(C)c2[nH]1)c1ccc(Br)cc1` (stereo not drawn) [compound 778], the IC50 is above 200 µM. Take `Cc1cccc2cc(C(=O)N[C@H](CO)Cc3ccccc3)[nH]c12` [compound 765]: the IC50 was above 200 µM.
